In PMC9549714 (iScience, 2022):

What was measured:
[1] = target: T1, PPAT (phosphoribosyl pyrophosphate amidotransferase) (Homo sapiens, UniProt Q06203); experiment: glutamate production from glutamine and PRPP, glutamate assay kit; assay type: biochemical
[2] = target: T1, PPAT (phosphoribosyl pyrophosphate amidotransferase); experiment: PPAT activity assay, presumably as above; assay type: biochemical

T1 sequence (Q06203 12-517): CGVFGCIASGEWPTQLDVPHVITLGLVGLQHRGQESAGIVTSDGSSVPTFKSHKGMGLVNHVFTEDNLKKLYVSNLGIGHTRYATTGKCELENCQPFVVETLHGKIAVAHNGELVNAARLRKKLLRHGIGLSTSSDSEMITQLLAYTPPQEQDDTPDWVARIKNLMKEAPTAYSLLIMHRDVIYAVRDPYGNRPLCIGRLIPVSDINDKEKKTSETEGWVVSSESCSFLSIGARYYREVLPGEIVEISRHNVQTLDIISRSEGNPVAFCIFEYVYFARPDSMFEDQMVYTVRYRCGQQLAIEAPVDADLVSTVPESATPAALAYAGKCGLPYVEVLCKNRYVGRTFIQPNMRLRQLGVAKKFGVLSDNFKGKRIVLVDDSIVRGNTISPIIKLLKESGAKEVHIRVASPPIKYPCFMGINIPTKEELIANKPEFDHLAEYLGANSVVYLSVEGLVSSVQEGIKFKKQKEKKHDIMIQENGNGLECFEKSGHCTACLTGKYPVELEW

SMILES | IC50 [1] [µM] | IC50 [2] [µM]
Cc1cc2nc3c(=O)[nH]c(=O)nc-3n(C[C@H](O)[C@H](O)[C@H](O)COP(=O)(O)O)c2cc1C [ZINC8551105, riboflavin 5′-monophosphate] | 7.5 | 
Cc1cc2nc3c(=O)[nH]c(=O)nc-3n(C[C@H](O)[C@H](O)[C@H](O)CO)c2cc1C [riboflavin] |  | 49.9
